# Where no end group is shown, it is not given here. [ ]: non-standard residue; d: D form.
# System: Wistar rats
# Test: Analgetic action: vegetative (pseudoaffective) reflex responses to mustard oil and capsaicin under urethane anaesthesia
# Format: in vivo, rat
# Design: Increase in heart rate: unit not given here
# Conditions: 10 μg/kg i.p.
# Text: This test is based on the synchronous registration of several components of so-called pseudoaffective reflex responses, which can be induced on animals by pain-producing stimuli [Lim, R. K. S.: J. Comp. Neurol 118, 269-294 (1962)] under urethane anaesthesia.
# A significant blood pressure increase of 45 mmHg as an average pressor response, heart rate increase of 85 (as an average) and hyperpnoea (the number of respirations increases by 61 per minute as an average) can be observed in control animals on the effect of strong chemonociceptive stimuli (painting of the lower limbs with 1% mustard oil or dropping a capsaicin solution of 100 μg/ml concentration into the eye) under urethane anaesthesia.
# The blood pressure, heart rate and respiration of intact Wistar rats (5 to 7 animals in each group, with a body weight of 250 to 350 g) were continuously registered for 40 minutes through an arterial cannula as well as double ramifying trachea cannula. Ten minutes before beginning the measurement, the pretreated animals received intraperitoneally 10 μg/kg of somatostatin (SS), octreotide or TT-232, respectively. Both lower limbs of the animals were painted with mustard oil in the 3rd minute and capsaicin solution was dropped into their eyes in the 23rd minute. The vegetative responses given on these nociceptive stimuli were evaluated by using a specific computer program.
substance,measurement,setting,value
D-Phe-Cys-Tyr-D-Trp-Lys-Cys-Thr-NH2 ([dF]CY[dW]KCT-NH2; cysteine pairing not given here) [TT-232],protection against pseudoaffective reflex triad elicited by mustard oil and capsaicin (in words),10 minutes before mustard oil,practically complete protection
same,Increase in respiration rate,"after dropping capsaicin solution into the eye, control 47.5",17.85 per minute
same,Increase in mean arterial pressure,"after dropping capsaicin solution into the eye, control 55",13 mmHg
same,Increase in heart rate,"after dropping capsaicin solution into the eye, control 143",22.88
same,Increase in mean arterial pressure,"after painting the feet by mustard oil, control 45.4",4.86 mmHg
same,Increase in respiration rate,"after painting the feet by mustard oil, control 60.75",12 per minute
same,Increase in heart rate,"after painting the feet by mustard oil, control 84.8",13.71

# Source: patent US6689813B2 (Biostatin Gyogyszerkutato-Fejleszto kft., priority 1998, dated 2004)
